Assay results from paper PMC3272488 (European Journal of Medicinal Chemistry, 2011).
Structures can show the parent of a compound that is named as a salt.

Columns and labels:
σ-1 = details: quantity type not given; cited from earlier work
σ-2 = details: quantity type not given; cited from earlier work
sigma-2 receptors = biological target: T1, sigma-2 receptors (Rattus norvegicus, UniProt Q5U3Y7); test: sigma-2 receptor radioligand binding
T1 sequence (Q5U3Y7 1-176): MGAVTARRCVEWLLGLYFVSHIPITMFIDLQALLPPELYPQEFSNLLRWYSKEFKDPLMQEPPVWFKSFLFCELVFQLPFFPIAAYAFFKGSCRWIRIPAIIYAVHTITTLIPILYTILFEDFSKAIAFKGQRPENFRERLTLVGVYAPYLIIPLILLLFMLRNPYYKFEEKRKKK

σ-1/σ-2 selectivity ratio (sigma-2 receptors)	SMILES	σ-1 affinity (σ-1)	σ-2 affinity (σ-2) [nM]
–	COc1cc2c(cc1OC)CN(CCCCNC(=O)c1cc(Br)cc(OC)c1OC)CC2 [5-bromo-N-(4-(6,7-dimethoxy-3,4-dihydroisoquinolin-2(1H)-yl)butyl)-2,3-dimethoxybenzamide]	12,900 nM	8.2
5	Fc1ccc(N2CCN(CCCCn3ccc4ccccc43)CC2)cc1 [4b, 1-(4-(4-(4-Fluorophenyl)piperazin-1-yl)butyl)indole oxalate]	–	–
–	Fc1ccc(-n2cc(CCCCN3CCC4(CC3)OCc3ccccc34)c3ccccc32)cc1 [Siramesine]	17 nM	–
